Reference: patent US7414042B2, “Method and composition for selectively inhibiting melanoma” (The Board of Trustees of The University of Illinois, priority 1995, dated 2008)
Converted amounts (≈) assume the structure as drawn. “Also recorded” adds a separate entry of the source.

Columns and labels:
MEL-2 (melanoma) = experiment: Cytotoxicity against cultured human melanoma cells (SRB); type: cell-based
Experimental: (§1) The plates were incubated for three days. […] Dose response studies were performed to generate ED50 values.

LOX melanoma cell line = experiment: Cytotoxicity of betulinic acid derivatives; type: cell-based, human; settings: Tables 2-6
Experimental: as §1

[1] = tested on: MALE-3M melanoma cell line; experiment: Cytotoxicity of betulinic acid derivatives; type: cell-based, human; settings: Tables 2-6
Experimental: as §1

MEL-6 melanoma cell line = experiment: Cytotoxicity of betulinic acid derivatives; type: cell-based, human; settings: Tables 2-6
Experimental: as §1

MEL-8 melanoma cell line = experiment: Cytotoxicity of betulinic acid derivatives; type: cell-based, human; settings: Tables 2-6
Experimental: as §1

UISO MEL-1 cells = experiment: In vivo activity against MEL-1 tumors in athymic mice; settings: 5, 50 or 250 mg/kg/dose IP betulinic acid/PVP every fourth day, six doses
Experimental: In particular, with respect to FIGS. 4 and 5, four week old athymic mice were injected subcutaneously in the right flank with 5.0×10^8 UISO MEL-1 cells. Drug treatment was initiated on the day following tumor cell injection and continued every fourth day for a total of six doses. Four control animals received 0.5 ml intraperitoneal (IP) saline, while treated animals (4 per group) received 5, 50 or 250 mg/kg/dose IP betulinic acid/PVP in dd H2O. The mice were weighed, and tumors were measured with a micrometer every third day throughout the study. Treated animals were sacrificed and autopsied on day 41, when the mean tumor volume in the control mice was approximately 0.5 cm^3. The control mice then received six doses of 50 mg/kg every fourth day beginning day 41 and were sacrificed and autopsied on day 71.

MEL-2 cells = experiment: Formation of the 50 Kbp DNA fragment (apoptosis), field-inversion gel electrophoresis; type: cell-based, human
Text: Therefore, an important feature of the present invention is a method of analyzing and quantifying the formation of the 50 Kbp fragment as a biomarker for induction of apoptosis in human cancer cell lines. This method comprises treatment of cells in culture, followed by analysis of the total cellular DNA content using agarose field-inversion gel electrophoresis. Under these conditions, the 50 Kbp fragment is resolved as a diffuse band. The fraction of the total cellular DNA represented by the 50 Kbp fragment is determined by densitometry on the contour of this band.
To investigate the ability of betulinic acid to induce apoptosis, the above-described method was adapted for use with the MEL-2 cell line. […]
With further respect to FIG. 3A, cultured MEL-2 cells (10^6 cells inoculated per 25 cm^2 flask) were treated with […] betulinic acid (200 μg/ml DMSO, diluted 1:100 in media) for 24, 32, 48, 56 and 72 hours. […] Samples were analyzed on a 1% agarose gel in a Hoefer HE100 SuperSub apparatus cooled to 10° C. by a circulating water bath. […]
Electrophoresis was performed at 172 volts for a total of 18 hours using two sequential field inversion programs with pulse ramping. The DNA/ethidium bromide fluorescence was excited on a UV transilluminator and photographed using Polaroid type 55 P/N film. The negative was analyzed using a PDI scanning densitometer and Quantity One software. […]

Solubility in water = type: physicochemical; settings: listed as betulinic acid
[2] = tested on: L1210 murine lymphocytic leukemia; settings: 200 mg/kg; cited from earlier work
[3] = tested on: human melanoma and nonmelanoma cancer cell lines; experiment: Cytotoxicity profile across the panel of human cancer cell lines; settings: all Table 1 cell lines other than MEL-2
Experimental: In the following Table 1, the extracted betulinic acid and the other pure compounds were tested for cycotoxity against the following cultured human cell lines: A431 (squamous cells), BC-1 (breast), COL-2 (colon), HT-1080 (sarcoma), KB (human oral epidermoid carcinoma), LNCaP (prostate), LU-1 (lung), MEL-2 (melanoma), U373 (glioma) and ZR-75-1 (breast).
Cytotoxicity of the crude extracts and purified compounds was determined in a number of cultured human cancer cell lines. The cells were cultured in appropriate media and under standard conditions. To maintain logarithmic growth, the media were changed 24 hours prior to cytotoxic assays. On the day of the assay, the cells were harvested by trypsinization, counted, diluted in media, and added to 96-well plates containing test compounds dissolved in DMSO; the final DMSO concentration was 0.05%.
The plates were incubated for three days. Following the incubation period, the cells were fixed and stained with sulforhodamine B (SRB) dye. The bound dye was liberated with Tris base, and the OD515 was measured on an ELISA reader. The growth of the betulinic acid-treated cells was determined by the OD515 values, and the growth was compared to the OD515 values of DMSO-treated control cells. Dose response studies were performed to generate ED50 values.
The biological evaluation of the derivatives focused on the activity against human melanoma cell lines. In particular, the following betulinic acid derivatives were prepared and tested for cytotoxicity profile against human melanoma cell lines and against a number of selected nonmelanoma cell lines.

In the case of `C=C(C)[C@@H]1CC[C@]2(C(=O)O)CC[C@]3(C)[C@H](CC[C@@H]4[C@@]5(C)CC[C@H](O)C(C)(C)[C@@H]5CC[C@]43C)[C@@H]12` [Compound 10, 3β-hydroxy-lup-20(29)-ene-28-oic acid], the IC50 (MEL-2 (melanoma); Homo sapiens, MEL2, 72 h, three days incubation, SRB, Table 1 and text, read-out: ED50 MEL-2) is reported as ~2 µg/mL (≈ 4.38 µM), the “ED50 (Std. Dev.) MEL-2” value (MEL-2 (melanoma); derivatives, Tables 2-6) is reported as 1.2 (0.1) μg/mL and the “ED50 MEL-2” value (MEL-2 (melanoma); three days incubation, SRB, Table 1 and text, listed as Betulinic acid) is reported as 2.0 µg/mL (≈ 4.38 µM). For the same compound, the “ED50 (Std. Dev.) LOX” value (LOX melanoma cell line) was >20 µg/mL, the “ED50 (Std. Dev.) MALE-3M” value [1] was 17.6 (0.5) μg/mL and the “ED50 (Std. Dev.) MEL-6” value (MEL-6 melanoma cell line) was 13.2 (1.5) μg/mL. The “ED50 (Std. Dev.) MEL-8” value (MEL-8 melanoma cell line) was 1.0 (0.3) μg/mL, the “activity against MEL-1 tumors (FIGS. 4 and 5)” value (UISO MEL-1 cells) was “showed activity against MEL-1 cells” and the “treatment period at maximum induction of the 50 Kbp fragment” value (MEL-2 cells; 2 μg/ml betulinic acid (FIG. 3A)) was 56 h. The “ED50 of the apoptotic response (50 Kbp fragment)” value (MEL-2 cells; MEL-2 cells treated for 56 hours (FIG. 3B)) was “about 1.5 μg/ml”, the solubility in water (Solubility in water) was “poor solubility in water; also recorded: low water solubility” and the “antitumor activity, L1210” value [2] was “inactive”. For the same compound, the “ED50, other cancer cell lines tested” value [3] was “greater than 20 μg/ml”.
